Reference: patent US9783521B2, “PDE10 inhibitors and related compositions and methods” (Omeros Corporation, priority 2008, dated 2017)

Target: T1, recombinant human PDE 10A1 (Homo sapiens, UniProt Q9Y233)
T1 construct: made in house; host or cells: Sf9 insect cells, baculoviral system
Experiment: PDE10 biochemical assay (two-step Thompson and Appleman method or SPA)
Conditions: not given
Description: After the appropriate incubation time, the reaction is terminated by heating. The mixture is then subjected to treatment with snake venom phosphatase. […] IC50 values can be calculated by performing the experiment at several concentrations using standard graphical means. A detailed description of the actual technique used for IC50 assays as set forth in following Examples.
The phosphodiesterase (PDE) assay was performed using recombinant human PDE 1A3, 2A3, 3 catalytic region, 4 catalytic region, 5 catalytic region, 7A, 8A, 9A2, 10A1 and 11A1 enzymes expressed in a baculoviral system using Sf9 cells. PDE activity was measured using a modification of the two-step method of Thompson and Appleman described above which was adapted for 96 well plate format. […] Reactions were initiated with enzyme and incubated with (^3H)-substrate and substance for 20 minutes at 30° C. The reaction was terminated by denaturing the enzyme (heating the reaction to 70° C. for 2 minutes). The reaction was then cooled at 4° C. for 10 minutes before the addition of snake venom (Crotalus atrox, 0.2 mg/ml) for 10 minutes at 30° C., thus allowing non-specific hydrolysis of the tritiated substrate. Separation of the remaining unhydrolysed cyclic nucleotide was achieved by a batch binding of the mixture to activated Dowex (200 μl) anion exchange resin. The anion exchange resin bound the charged nucleotides, leaving only hydrolysed (^3H) substrate in the soluble fraction. The soluble fraction (50 μl) was then added to microscint-20 (200 μl) and counted on a Top Count Plate reader. Radioactivity units were plotted against inhibitor concentration and IC50 values obtained using Graph Pad Prism software.
Alternatively, phosphodiesterase activity was measured by scintillation proximity assay (SPA) with [^3H]-cGMP as substrate. Purified PDE10 was diluted and stored in 25 mM Tris-Cl (pH 8.0)/100 mM NaCl/0.05% Tween 20/50% glycerol/3 mM DTT. Assays contained (final concentrations): 50 mM Tris-Cl (pH 7.5)/8.3 mM MgCl2/1.7 mM EGTA/0.5 mg/ml BSA/5% DMSO and 2 ng PDE10 in a final volume of 0.1 mL. Inhibition was evaluated at 8 concentrations in duplicate. Reactions were initiated by addition of enzyme and were terminated after 20 minutes at 30° C. by the addition of 50 μl of SPA beads containing Zn^++. The mixture was shaken, allowed to settle for 3 hours, and counted in a Wallac plate counter. Results (net cpm) were fitted to a four parameter logistic model using Excel Solver®.

T1 sequence (Q9Y233 1-779 isoform Q9Y233-1): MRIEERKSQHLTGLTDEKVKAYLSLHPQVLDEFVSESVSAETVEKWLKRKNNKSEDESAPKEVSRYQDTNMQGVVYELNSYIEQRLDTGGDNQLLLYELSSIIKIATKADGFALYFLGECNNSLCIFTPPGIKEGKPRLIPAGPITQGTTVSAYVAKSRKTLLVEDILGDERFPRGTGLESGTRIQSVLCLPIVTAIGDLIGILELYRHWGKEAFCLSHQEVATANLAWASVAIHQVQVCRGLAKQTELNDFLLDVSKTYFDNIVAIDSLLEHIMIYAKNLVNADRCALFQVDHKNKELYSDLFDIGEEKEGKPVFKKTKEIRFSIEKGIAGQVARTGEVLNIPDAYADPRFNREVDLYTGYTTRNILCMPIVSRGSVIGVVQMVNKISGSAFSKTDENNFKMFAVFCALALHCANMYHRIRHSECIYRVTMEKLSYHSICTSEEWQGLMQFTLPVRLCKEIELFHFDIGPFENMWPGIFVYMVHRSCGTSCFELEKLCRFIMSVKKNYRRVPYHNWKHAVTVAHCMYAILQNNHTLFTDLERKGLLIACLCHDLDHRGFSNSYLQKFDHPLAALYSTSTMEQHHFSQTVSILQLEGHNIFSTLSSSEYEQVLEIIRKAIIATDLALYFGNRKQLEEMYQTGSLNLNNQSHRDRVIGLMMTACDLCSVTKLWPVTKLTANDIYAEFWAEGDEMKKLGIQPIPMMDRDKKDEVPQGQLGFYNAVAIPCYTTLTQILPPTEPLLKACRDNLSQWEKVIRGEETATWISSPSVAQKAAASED

Structure (SMILES) | IC50
CCOc1cc(/C=N/NC(=O)C(OC)c2ccc(Cl)cc2)ccc1OC (stereo not drawn) [Compound 12-7] | ≤ 1 µM

Same assay, conditions: PDE10 inhibition; read-out: IC50

Structure (SMILES) | IC50
COc1cc(/C=N/NC(=O)C(OC)c2ccc3ccccc3c2)cc(OC)c1OC (stereo not drawn) [Compound 1-1, (E)-2-Methoxy-2-(naphthalen-2-yl)-N′-(3,4,5-trimethoxybenzylidene)acetohydrazide] | ≤ 1 µM
COc1cc(/C=N/NC(=O)C(c2ccccc2)c2ccccc2)cc(OC)c1OC [Compound 3-1, (E)-2,2-Diphenyl-N′-(3,4,5-trimethoxybenzylidene)acetohydrazide] | ≤ 1 µM
COc1ccc(/C=N/NC(=O)C(SC)c2ccccc2)cc1OC (stereo not drawn) [Compound 4-1, (E)-N′-(3,4-Dimethoxybenzylidene)-2-(methylthio)-2-phenylacetohydrazide] | ≤ 1 µM
COc1cc(/C=N/N=C(\OC(=O)C(C)(C)C)C(OC)c2cccc3ccccc23)cc(OC)c1OC (stereo not drawn) [Compound 5-1, (1Z, N′E)-2-Methoxy-2-(naphthalen-1-yl)-N′-(3,4,5-trimethoxybenzylidene)acetohydrazonic pivalic anhydride] | ≤ 1 µM
COc1cc(/C=N/NC(=O)C(OC)c2cccc3ncccc23)cc(OC)c1OC (stereo not drawn) [Compound 6-1, (E)-2-methoxy-2-(quinolin-5-yl)-N′-(3,4,5-trimethoxybenzylidene)acetohydrazide] | ≤ 1 µM
COc1cc(/C=N/NC(=O)C(OC)c2ccc(N(C)C)cc2)cc(OC)c1OC (stereo not drawn) [Compound 7-1, (E)-2-(4-(Dimethylamino)phenyl)-2-methoxy-N′-(3,4,5-trimethoxybenzylidene)acetohydrazide] | ≤ 1 µM
COc1cc(/C=N/NC(=O)C(OC)c2cc3ccccc3s2)cc(OC)c1OC (stereo not drawn) [Compound 8-1, (E)-2-(Benzo[b]thiophen-2-yl)-2-methoxy-N′-(3,4,5-trimethoxybenzylidene)acetohydrazide] | ≤ 1 µM
COc1ccc(/C=N/NC(=O)C(c2ccccc2)C(C)C)cc1OC (stereo not drawn) [Compound 9-1, (E)-N′-(3,4-Dimethoxybenzylidene)-3-methyl-2-phenylbutanehydrazide] | ≤ 1 µM
COc1cc(/C=N/N(CC(F)(F)F)C(=O)C(OC)c2ccc(-n3cccn3)cc2)cc(OC)c1Br (stereo not drawn) [Compound 11-1, (E)-2-(4-(1H-pyrazol-1-yl)phenyl)-N′-(4-bromo-3,5-dimethoxybenzylidene)-2-methoxy-N-(2,2,2-trifluoroethyl)acetohydrazide] | ≤ 1 µM
COc1cc(/C=N/NC(=O)C(OC)c2ccc(F)cc2)cc(OC)c1Br (stereo not drawn) [Compound 12-1] | ≤ 1 µM
CCOc1cc(/C=N/NC(=O)C(OC)c2ccc(Cl)cc2)cc(Br)c1OC (stereo not drawn) [Compound 12-2] | ≤ 1 µM
COc1cc(/C=N/NC(=O)C(OC)c2ccc(F)cc2)cc(Br)c1OC (stereo not drawn) [Compound 12-3] | ≤ 1 µM
COc1cc(/C=N/NC(=O)C(OC)c2ccc(Cl)cc2)cc(Br)c1OC (stereo not drawn) [Compound 12-4] | ≤ 1 µM
CCOc1cc(/C=N/NC(=O)C(OC)c2ccc(Cl)cc2)cc(Cl)c1OC (stereo not drawn) [Compound 12-5] | ≤ 1 µM
COc1cc(/C=N/NC(=O)C(OC)c2ccc(Cl)cc2)cc(Cl)c1OC (stereo not drawn) [Compound 12-6] | ≤ 1 µM
COc1cc(/C=N/NC(=O)C(OC)c2ccc(Cl)cc2)ccc1C (stereo not drawn) [Compound 12-8] | ≤ 1 µM
COc1ccc(/C=N/NC(=O)C(OC)c2ccc(Cl)cc2)cc1OC (stereo not drawn) [Compound 12-10] | ≤ 1 µM
COc1cc(/C=N/NC(=O)C(OC)c2ccc(Cl)cc2)cc(OC)c1Br (stereo not drawn) [Compound 12-12] | ≤ 1 µM
COc1cc(/C=N/NC(=O)C(OC)c2cccc3ccccc23)cc(OC)c1OC (stereo not drawn) [Compound 12-13] | ≤ 1 µM
COc1cc(/C=N/NC(=O)C(OC)c2ccc(Cl)cc2)cc(C#N)c1OC (stereo not drawn) [Compound 12-14] | ≤ 1 µM
COc1cc(/C=N/NC(=O)C(OC)c2ccc(Cl)cc2)cc(OC)c1OC (stereo not drawn) [Compound 12-15] | ≤ 1 µM
COc1ccc(/C=N/NC(=O)C(OC)c2ccc3ccccc3c2)cc1OC(F)F (stereo not drawn) [Compound 12-16] | ≤ 1 µM
COc1cc(/C=N/NC(=O)C(OC)c2ccccc2)cc(OC)c1OC (stereo not drawn) [Compound 12-17] | ≤ 1 µM
